Molecules are shown by their SMILES.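 Cultured in 96-well plates, cells were exposed to test compound for 48 hours across five concentrations. GI50: concentration for 50% inhibition of growth. TGI denotes the concentration required for complete inhibition of growth.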

Some test systems named below: KM12 colon; K-562 leukemia; SK-MEL-2 melanoma; RPMI-8226 leukemia; RXF 393 renal; SN12C renal; PC-3 prostate; COLO 205 colon; NCI-H522 lung; BT-549 breast.
Assay in all cases: DTP human tumour cell line panel, 48 h

In the case of `Nc1ccc2c3c(n(CCCCl)c(=O)c2c1)-c1cc2c(cc1C3=O)OCO2`, the GI50 in the experiment on KM12 colon is 41.6 µM; in the experiment with K-562 leukemia it was above 100 µM; in the experiment with SK-MEL-2 melanoma it was above 100 µM; in the experiment on RPMI-8226 leukemia, above 100 µM; in the experiment on RXF 393 renal it was 55.1 µM; in the experiment on SN12C renal, above 100 µM. Further, the GI50 with PC-3 prostate and in the experiment on COLO 205 colon was above 100 µM throughout. The TGI with KM12 colon, with K-562 leukemia, in the experiment on SK-MEL-2 melanoma, in the experiment on RPMI-8226 leukemia, in the experiment on RXF 393 renal and in the experiment on SN12C renal was above 100 µM in each case. The TGI with PC-3 prostate and in the experiment with COLO 205 colon was above 100 µM in each case.

Turning to `COc1ccc2c(c1)N=C1CSC(c3cccc(Br)c3)N1C2` (stereo not given), the TGI in the experiment on KM12 colon turned out to be 36 µM; with K-562 leukemia, 67.1 µM; in the experiment on NCI-H522 lung, 39.1 µM; in the experiment on SK-MEL-2 melanoma it was 36.3 µM; in the experiment with RPMI-8226 leukemia, 29.7 µM; in the experiment with RXF 393 renal, 29.7 µM. Further, the TGI was 39.7 µM in the experiment with SN12C renal, 32.4 µM in the experiment on BT-549 breast, 38.4 µM in the experiment on PC-3 prostate and 68.7 µM in the experiment on COLO 205 colon.

For the compound `Cc1cccc2[s+]snc12`, the TGI is above 100 µM in the experiment with KM12 colon; 59.3 µM in the experiment with K-562 leukemia; 35.9 µM in the experiment on NCI-H522 lung; above 100 µM in the experiment on SK-MEL-2 melanoma; above 81.4 µM in the experiment with RPMI-8226 leukemia; above 75.1 µM in the experiment with RXF 393 renal. Further, the TGI is above 100 µM in the experiment with SN12C renal and 50.8 µM with COLO 205 colon.

With `NC(CCP(=O)(O)CCC1C=CC=CC1)C(=O)O` (stereo not given), the concentration for total growth inhibition (TGI) in the experiment with KM12 colon was above 100 µM; in the experiment on K-562 leukemia, above 100 µM; with NCI-H522 lung, 55.4 µM; in the experiment with SK-MEL-2 melanoma, above 100 µM; in the experiment on RPMI-8226 leukemia it was above 100 µM; in the experiment on RXF 393 renal it was above 100 µM. Besides, the TGI with SN12C renal, with BT-549 breast, in the experiment on PC-3 prostate and in the experiment with COLO 205 colon was above 100 µM each time.

Regarding `CC(C)(C)[Si](C)(C)OCC1CCC(n2cnc3c(N)ncnc32)O1` (stereo not given), the TGI with KM12 colon, with K-562 leukemia, with SK-MEL-2 melanoma, with RPMI-8226 leukemia, in the experiment with RXF 393 renal and in the experiment on SN12C renal was above 100 µM in each case. In addition, the TGI was 87 µM in the experiment on BT-549 breast, above 100 µM in the experiment on PC-3 prostate and above 100 µM in the experiment with COLO 205 colon.

As for `O=[N+]([O-])c1ccc(Nc2nc3ccccc3s2)cc1`, the TGI was above 100 µM with KM12 colon; 35 µM in the experiment with K-562 leukemia; 35.9 µM with NCI-H522 lung; 81 µM with SK-MEL-2 melanoma; 28.9 µM in the experiment with RXF 393 renal; 81.4 µM in the experiment on BT-549 breast. The same compound yielded a TGI in the experiment with PC-3 prostate of 35.1 µM.

Take `NNc1nc2ccccc2s1`: the TGI with KM12 colon, in the experiment with K-562 leukemia, in the experiment with NCI-H522 lung, with SK-MEL-2 melanoma, with RPMI-8226 leukemia and with RXF 393 renal was above 100 µM throughout. The TGI in the experiment with SN12C renal, in the experiment with BT-549 breast, in the experiment on PC-3 prostate and in the experiment with COLO 205 colon was above 100 µM in each case.

`CCOC(=O)/C(C#N)=C1\c2c([nH]c(=S)[nH]c2=O)Oc2ccc3ccccc3c21`: the TGI in the experiment with KM12 colon was above 100 µM; in the experiment with K-562 leukemia, above 100 µM; in the experiment with NCI-H522 lung, 54.5 µM; with SK-MEL-2 melanoma, 41 µM; with RPMI-8226 leukemia, above 100 µM; with RXF 393 renal, above 100 µM. In addition, the TGI in the experiment with SN12C renal, in the experiment with BT-549 breast, in the experiment with PC-3 prostate and with COLO 205 colon was above 100 µM in each case.

For the compound `Cc1ccc(Nc2nc(N)nc3c2ncn3C2OC(CO)C(O)C2O)cc1` (stereo not given), the TGI with KM12 colon, in the experiment with K-562 leukemia, in the experiment on NCI-H522 lung, in the experiment on SK-MEL-2 melanoma, in the experiment on RPMI-8226 leukemia and with RXF 393 renal was above 100 µM throughout. Besides, the concentration for total growth inhibition (TGI) in the experiment with SN12C renal, in the experiment with PC-3 prostate and in the experiment with COLO 205 colon was above 100 µM each time.

Take `c1cn2cc(-c3ccc4ncn(C5CCCCC5)c4c3)nc(-c3ccc4c(c3)ncn4C3CCCCC3)c2n1`: the GI50 in the experiment on K-562 leukemia was 2.58 µM; with SK-MEL-2 melanoma it was 1.74 µM; with RPMI-8226 leukemia, 0.806 µM; with RXF 393 renal, 1.51 µM; in the experiment on SN12C renal it was 2.05 µM; in the experiment with BT-549 breast it was 1.94 µM. Moreover, in the experiment with COLO 205 colon, the GI50 was 1.93 µM. In addition, the TGI with K-562 leukemia was above 100 µM; with SK-MEL-2 melanoma it was 3.35 µM; in the experiment with RPMI-8226 leukemia it was 3.99 µM; in the experiment with RXF 393 renal, 3 µM; in the experiment with SN12C renal, 4.53 µM; with BT-549 breast, 3.64 µM. In the experiment with COLO 205 colon, the TGI was determined as 3.79 µM.

Take `COC1CC(OC2CCC3(C)C(CCC45CCC(C6=CC(=O)OC6)C(C)(CCC43)C5=O)C2)OC(C)C1O` (stereo not given): the TGI in the experiment with KM12 colon was above 100 µM; in the experiment with K-562 leukemia, above 100 µM; in the experiment with NCI-H522 lung, 82.1 µM; in the experiment with SK-MEL-2 melanoma it was above 100 µM; in the experiment on RXF 393 renal, 89.4 µM; in the experiment with SN12C renal, 61.9 µM. The TGI is 55.3 µM in the experiment with BT-549 breast, above 100 µM in the experiment on PC-3 prostate and above 100 µM with COLO 205 colon.

Consider `CCC(=O)NC(Nc1ccc(O)cc1)(C(F)(F)F)C(F)(F)F`, for which the TGI was above 100 µM with KM12 colon; above 100 µM in the experiment on K-562 leukemia; 66.6 µM in the experiment on NCI-H522 lung; above 100 µM with SK-MEL-2 melanoma; above 100 µM with RPMI-8226 leukemia; above 100 µM in the experiment with RXF 393 renal. For the same compound, the TGI with SN12C renal and in the experiment on BT-549 breast was above 100 µM throughout.

In the case of `CC12CCC(C(=O)N3CC=CCC3)(OC1=O)C2(C)C` (stereo not given), the TGI in the experiment on KM12 colon, in the experiment with K-562 leukemia, in the experiment with NCI-H522 lung, in the experiment on SK-MEL-2 melanoma, with RPMI-8226 leukemia and in the experiment on RXF 393 renal was above 100 µM each time. In addition, the TGI in the experiment on SN12C renal and in the experiment with COLO 205 colon was above 100 µM in each case.

For the compound `C/C(=N/O)c1cccc(Nc2nc3ccc(Cl)cc3c3[nH]c4ccccc4c23)c1`, the TGI in the experiment with KM12 colon was 3.79 µM; with K-562 leukemia it was above 100 µM; with NCI-H522 lung it was 3.26 µM; in the experiment with SK-MEL-2 melanoma it was 3.88 µM; with RPMI-8226 leukemia, 3.52 µM; with RXF 393 renal, 3.27 µM. The TGI in the experiment with SN12C renal turned out to be 9.53 µM; in the experiment on BT-549 breast, 11.6 µM; in the experiment on PC-3 prostate, 4.7 µM; in the experiment with COLO 205 colon, 4.15 µM.

Consider `CC1=CC(=O)C(=O)C2=C1OC1(C2)C(C)CCC2C3(C)CCC(O)C(C)(C)C3CCC21C` (stereo not given), for which the TGI in the experiment with KM12 colon was 29.9 µM; with K-562 leukemia, 54.1 µM; with NCI-H522 lung it was 30.7 µM; with RPMI-8226 leukemia, 88.3 µM; in the experiment with RXF 393 renal, 33.2 µM; in the experiment with SN12C renal it was above 100 µM. For the same compound, the TGI in the experiment on COLO 205 colon came to 32.6 µM.

Regarding `O=C(O)C1Cc2c([nH]c3ccccc23)C=N1` (stereo not given), the TGI in the experiment with KM12 colon is above 31.7 µM; with K-562 leukemia it was above 100 µM; in the experiment with NCI-H522 lung, above 100 µM; with SK-MEL-2 melanoma, above 100 µM; in the experiment on RPMI-8226 leukemia, above 100 µM; with RXF 393 renal, above 100 µM. Further, the TGI in the experiment on SN12C renal and in the experiment on COLO 205 colon was above 100 µM in each case.

With `N=C(N)c1csc([C@@H]2O[C@H](CO)[C@@H](O)[C@H]2O)n1`, the TGI in the experiment on KM12 colon, with K-562 leukemia, with SK-MEL-2 melanoma, in the experiment with RPMI-8226 leukemia, in the experiment with RXF 393 renal and in the experiment on SN12C renal was above 100 µM in each case.

Turning to `NC(=O)C(c1ccccc1)N1OC2C(=O)N(c3cccc4ccccc34)C(=O)C2C1c1c2ccccc2c(Cl)c2ccccc12` (stereo not given), the TGI with KM12 colon was 7.75 µM; in the experiment on K-562 leukemia, above 50 µM; with NCI-H522 lung, 44.3 µM; in the experiment on SK-MEL-2 melanoma, 19.6 µM; in the experiment on RXF 393 renal, 16.8 µM; in the experiment on SN12C renal, 16.3 µM. Also, the TGI with BT-549 breast came to 22 µM; in the experiment with PC-3 prostate, 18.6 µM; with COLO 205 colon, 14.9 µM.

Take `C(=NCc1ccccc1)c1ccccc1-c1ccccc1C=NCc1ccccc1`: the TGI was above 10 µM with KM12 colon; 9.76 µM in the experiment on K-562 leukemia; above 10 µM with NCI-H522 lung; above 10 µM in the experiment with SK-MEL-2 melanoma; above 10 µM with RPMI-8226 leukemia; above 10 µM with RXF 393 renal. In addition, the concentration for total growth inhibition (TGI) with SN12C renal, in the experiment with PC-3 prostate and in the experiment on COLO 205 colon was above 10 µM in each case.

As to `COc1cc(C2=C(C#N)C(N)OC3=C2COc2ccccc23)cc(OC)c1OC` (stereo not given), the TGI in the experiment on KM12 colon was above 100 µM; in the experiment on K-562 leukemia, above 100 µM; in the experiment with SK-MEL-2 melanoma it was above 100 µM; in the experiment with RPMI-8226 leukemia, above 100 µM; with SN12C renal, 39.1 µM; with BT-549 breast, above 100 µM. For the same compound, the TGI with PC-3 prostate is 50.6 µM; in the experiment on COLO 205 colon it was above 100 µM.

As usually defined, the GI50 is the concentration giving 50% growth inhibition. In general, TGI refers to the concentration at which net growth stops. A high value points to less potent growth arrest.

The values are drawn from PubChem BioAssay (NCI).
